Laboratory results from patent US20080182834A1, “Multi-Nuclear Metal Complexes Partially Encapsulated by Cucurbit[7-12]Urils” (NEWSOUTH INNOVATIONS PTY LIMITED, priority 2004, published 2008).

How the values were obtained:
[1] = system: L1210/DDP cisplatin resistant cells; assay: In vitro cytotoxic activity against cisplatin resistant L1210/DDP cells; type: cell-based, murine; conditions: concentration required to inhibit cell growth by 50%
[2] = system: L1210 murine leukaemia cells; assay: In vitro cytotoxic activity against L1210 murine leukaemia cells; type: cell-based; conditions: concentration required to inhibit cell growth by 50%

| Substance | IC50 [1] [nM] | IC50 [2] [nM] |
| --- | --- | --- |
| {trans-diamminechloro(μ-spermidine)platinum(II)}chloride [BBR3571] | 7.5 | 11.5 |
| {trans-diamminechloro(μ-dipyrazolylmethane)platinum(II)}chloride [Di-Pt] | 8800 | 3800 |
| {trans-diamminebis{trans-diamminechloro(μ-1,6-hexanediamine)platinum(II)}platinum(II)}nitrate [BBR3464] | 24.5 | 57 |
